7 molecules from patent US5283236A, “Systemic delivery of polypeptides through the eye” (Orbon Corporation, priority 1992, dated 1994) can be followed below.

Bounds are passed on as bounds.

Data set [1] can be described thus: Insulin absorption from eye drops with absorption enhancers (blood insulin). In kind it is in vivo, New Zealand white female rabbits. The settings on record: eye drops: 1% insulin plus 1% absorption enhancer (Control: no enhancer).
Data set [2] relates to normal rabbits. Briefly: Blood glucose after insulin eye drops with absorption enhancers. In kind it is in vivo, New Zealand white female rabbits. The following applies: eye drops: 1% insulin plus 1% absorption enhancer (Control: no enhancer).
Data set [3] is described as follows: Penetration of insulin into eyeballs with absorption enhancers. The following applies: 1% insulin plus 1% enhancer (Control: 1% insulin only). In kind it is in vivo, rabbits.
For data set [4] the following is noted: rabbit, in vivo. The text has this: The concentrations of peptides in the blood were expressed in ng/ml.
Data set [5] in a line: Blood enkephalin-equivalent concentration after ocular or i.v. enkephalin. In kind it is in vivo, New Zealand white female rabbits. The following applies: enkephalin 50 ug i.v.
Data set [6] can be described thus: Enkephalin-equivalent remaining in eye tissues at the end of 12 hr experiment. The data set is classed as in vivo, New Zealand white female rabbits.
Data set [7] concerns normal rabbits. Briefly: Blood glucose after ocular or i.v. glucagon in normal rabbits. The data set is classed as in vivo, New Zealand white female rabbits. The following applies: for blood glucose raised to: in 30 min.

On to `C[N+](C)(C)CCCCCCCCCC[N+](C)(C)C` [Decamethonium, decamethonium bromide], for which, in data set [1], the “Insulin peak Concentration” value was 10.8 ± 1.8 ng/mL. Further, in the data set with normal rabbits [2], the “% Change in Blood Glucose Concentration” value was 8% and the “Blood Glucose Concentration Before” value was determined as 90 ± 3 mg %.

With `C[C@H](CCC(=O)NCC(=O)O)[C@H]1CC[C@H]2[C@@H]3[C@H](O)C[C@@H]4C[C@H](O)CC[C@]4(C)[C@H]3C[C@H](O)[C@]12C` [Glycocholate, sodium glycocholate], the “Absolute amount of insulin in the eyeball” value in data set [3] is given as 200 ng.

For `CC(C)C[C@H](NC(=O)CNC(=O)[C@H](Cc1ccc(O)cc1)NC(=O)[C@H](CO)NC(=O)[C@H](Cc1c[nH]c2ccccc12)NC(=O)[C@H](Cc1cnc[nH]1)NC(=O)[C@@H]1CCC(=O)N1)C(=O)N[C@@H](CCCNC(=N)N)C(=O)N1CCC[C@H]1C(=O)NCC(N)=O` [LHRH, luteinizing hormone-releasing hormone], in data set [4], the “LHRH eye drop concentration sufficient to reach therapeutic effective blood concentration” value is not below 0.005%. Besides, the “Tx of blood LHRH” value in data set [4] (iv) is given as “approximately 15 min”.

As for `NC(=O)[C@@H]1CCCN1C(=O)[C@H](Cc1cnc[nH]1)NC(=O)[C@@H]1CCC(=O)N1` [TRH, Thyrotrophin-releasing hormone], in data set [4], the “TRH eye drop concentration giving a therapeutic blood concentration” value is recorded as not below 0.0025%. Besides, the “Tx of blood TRH” value in data set [4] (iv) is on record as “approximately 10 min”.

Regarding `CC(C)C[C@H](NC(=O)[C@H](Cc1ccccc1)NC(=O)CNC(=O)CNC(=O)[C@@H](N)Cc1ccc(O)cc1)C(=O)O` [enkephalin, Leucine-enkephalin (5-L-leucine)], the “Tx of decline of blood concentration” value in data set [5] is listed as “less than 30 min”. Besides, the lowest blood concentration in data set [5] (in 5 hrs) stood at 22 ng/mL. The “Residual amount of enkephalin remaining in tissues, % of instilled, Total” value was found to be 0.1713% in data set [6] (1% enkephalin), 0.1136% in data set [6] (5% enkephalin) and 0.3019% in data set [6] ([…] enkephalin). Also, the “Residual amount of enkephalin remaining in tissues, Amount, Total” value in data set [6] (1% enkephalin) is 428.28 ng.

Molecule Glucagon returned a blood glucose peak in the data set on normal rabbits [7] (50 ug glucagon i.v., peaked at 30 min) of 235 mg %. Besides, the “blood glucose raised to” value in the data set on normal rabbits [7] (25 ul of 0.2% glucagon instilled) worked out at 204 mg %; with normal rabbits [7] (25 ul of 1% glucagon instilled), 248 mg %. Further, the “blood glucose came down to” value with normal rabbits [7] (25 ul of 0.2% glucagon instilled, in 2 hrs) was 116 mg %. In addition, the “blood glucose declined to” value in the data set on normal rabbits [7] (25 ul of 5% glucagon instilled, end of 6 hr) is recorded as 160 mg %.

For the molecule polyoxyethylene-9-lauryl ether [BL-9], in the data set with normal rabbits [2], the “% Change in Blood Glucose Concentration” value turned out to be 42%, the “Blood Glucose Concentration After” value was found to be 56 mg % and the “Blood Glucose Concentration Before” value amounted to 97 mg %.
